The values below are quoted from earlier work in patent publication US9084755B2, “Method for extracting and separating ginkgolides” (CHENGDU BAIYU TECHNOLOGY PHARMACY CO., LTD, priority 2012, dated 2015).

This data set addresses platelet-activating factor PAF receptor (Homo sapiens, UniProt P25105). Particulars: compared among ginkgolides.

Chain of platelet-activating factor PAF receptor (P25105 whole entry): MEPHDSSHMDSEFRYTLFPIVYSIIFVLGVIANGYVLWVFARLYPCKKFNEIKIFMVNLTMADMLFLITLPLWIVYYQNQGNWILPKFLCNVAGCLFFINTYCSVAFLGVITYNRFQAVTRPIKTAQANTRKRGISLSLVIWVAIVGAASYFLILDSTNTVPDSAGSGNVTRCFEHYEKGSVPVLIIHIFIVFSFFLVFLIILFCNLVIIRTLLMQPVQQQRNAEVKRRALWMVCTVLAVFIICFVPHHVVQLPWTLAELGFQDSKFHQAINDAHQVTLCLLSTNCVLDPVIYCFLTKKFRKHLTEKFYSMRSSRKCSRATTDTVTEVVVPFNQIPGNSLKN

On to `C[C@@H]1C(=O)O[C@H]2[C@H](O)C34[C@H]5C[C@@H](C(C)(C)C)[C@]36[C@@H](OC(=O)[C@@H]6O)O[C@@]4(C(=O)O5)[C@@]12O` (stereo partly shown) [ginkgolide B], for which the “antagonism to the PAF” value is “strongest”.
